Laboratory results reported in PubChem BioAssay (NCI).
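1) Cells in 96-well plates. 2) Compound, 48 h, 5 concentrations. 3) Linear interpolation between surrounding doses. 4) Unreached endpoint = highest concentration. TGI is the concentration that stops growth completely.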

Experiments:
Test in all cases: DTP human tumour cell line panel, 48 h
HS 578T breast = test system: HS 578T breast
HCT-15 colon = test system: HCT-15 colon
MALME-3M melanoma = test system: MALME-3M melanoma
HL-60(TB) leukemia = test system: HL-60(TB) leukemia
OVCAR-5 ovarian = test system: OVCAR-5 ovarian
ACHN renal = test system: ACHN renal
SK-MEL-28 melanoma = test system: SK-MEL-28 melanoma
TK-10 renal = test system: TK-10 renal
MDA-N = test system: MDA-N
NCI-H460 lung = test system: NCI-H460 lung
LOX IMVI melanoma = test system: LOX IMVI melanoma
SK-MEL-5 melanoma = test system: SK-MEL-5 melanoma
EKVX NSCLC = test system: EKVX NSCLC
SF-268 CNS = test system: SF-268 CNS
HOP-92 NSCLC = test system: HOP-92 NSCLC
RPMI-8226 leukemia = test system: RPMI-8226 leukemia
BT-549 breast = test system: BT-549 breast
U251 CNS = test system: U251 CNS
SW-620 colon = test system: SW-620 colon
T-47D breast = test system: T-47D breast
SN12C renal = test system: SN12C renal
HOP-62 NSCLC = test system: HOP-62 NSCLC
UO-31 renal = test system: UO-31 renal
CCRF-CEM leukemia = test system: CCRF-CEM leukemia
A549 NSCLC = test system: A549 NSCLC
MOLT-4 leukemia = test system: MOLT-4 leukemia
M14 melanoma = test system: M14 melanoma
HT29 colon = test system: HT29 colon
IGROV1 ovarian = test system: IGROV1 ovarian
CAKI-1 renal = test system: CAKI-1 renal
SF-539 CNS = test system: SF-539 CNS
KM12 colon = test system: KM12 colon
DU-145 prostate = test system: DU-145 prostate
PC-3 prostate = test system: PC-3 prostate
HCC-2998 colon = test system: HCC-2998 colon
NCI-H522 lung = test system: NCI-H522 lung
HCT-116 colon = test system: HCT-116 colon
OVCAR-4 ovarian = test system: OVCAR-4 ovarian
SK-MEL-2 melanoma = test system: SK-MEL-2 melanoma
NCI/ADR-RES ovarian = test system: NCI/ADR-RES ovarian
MCF7 breast = test system: MCF7 breast
NCI-H226 lung = test system: NCI-H226 lung
RXF 393 renal = test system: RXF 393 renal
UACC-62 melanoma = test system: UACC-62 melanoma
SF-295 CNS = test system: SF-295 CNS
UACC-257 melanoma = test system: UACC-257 melanoma
OVCAR-8 ovarian = test system: OVCAR-8 ovarian
SNB-75 CNS = test system: SNB-75 CNS
MDA-MB-231 breast = test system: MDA-MB-231 breast
SK-OV-3 ovarian = test system: SK-OV-3 ovarian
K-562 leukemia = test system: K-562 leukemia
MDA-MB-435 = test system: MDA-MB-435
COLO 205 colon = test system: COLO 205 colon
SR leukemia = test system: SR leukemia
SNB-19 CNS = test system: SNB-19 CNS
786-0 renal = test system: 786-0 renal
OVCAR-3 ovarian = test system: OVCAR-3 ovarian

Measured: TGI

COc1ccc(/C=C(\C#N)c2nc3ccccc3c(=O)[nH]2)cc1
75.1 µM: T-47D breast | IGROV1 ovarian
52.2 µM: SF-295 CNS
42.3 µM: ACHN renal
74.7 µM: SK-MEL-2 melanoma
28.4 µM: OVCAR-8 ovarian
19 µM: HCT-116 colon
28.9 µM: SNB-19 CNS
33.9 µM: U251 CNS
32.3 µM: RXF 393 renal
34.4 µM: NCI-H460 lung
83.8 µM: TK-10 renal
64.6 µM: DU-145 prostate
29.7 µM: BT-549 breast
26.1 µM: SF-539 CNS
90.1 µM: NCI/ADR-RES ovarian
34.7 µM: 786-0 renal
72.4 µM: UO-31 renal
23.8 µM: SK-OV-3 ovarian
70.3 µM: OVCAR-4 ovarian
57.1 µM: SK-MEL-5 melanoma
80.1 µM: CAKI-1 renal
84.3 µM: NCI-H226 lung
47.2 µM: SF-268 CNS
91.6 µM: HS 578T breast
29.3 µM: HOP-92 NSCLC
25.2 µM: NCI-H522 lung
19.7 µM: MDA-MB-231 breast
24.1 µM: HOP-62 NSCLC
not listed: OVCAR-3 ovarian
> 100 µM: all other assays above

O=C(O)c1cc2ccccc2c(N=Nc2ccc(S(=O)(=O)O)cc2)c1O
not listed: LOX IMVI melanoma
> 100 µM: all other assays above
